Data taken from ChEMBL document CHEMBL3991601, “The target landscape of clinical kinase drugs” (Science, 2017).
Calls of active or inactive are those of the source. Cut-off read from the data, not from the text of the source, for most assays here: actives have a measured Kd and inactives only a lower limit.

Legend:
[1] = molecular target: BMP-2-inducible protein kinase (Homo sapiens, UniProt Q9NSY1)
[2] = molecular target: Calcium/calmodulin-dependent protein kinase type II subunit gamma (Homo sapiens, UniProt Q13555)
Chain of Calcium/calmodulin-dependent protein kinase type II subunit gamma (Q13555 whole entry): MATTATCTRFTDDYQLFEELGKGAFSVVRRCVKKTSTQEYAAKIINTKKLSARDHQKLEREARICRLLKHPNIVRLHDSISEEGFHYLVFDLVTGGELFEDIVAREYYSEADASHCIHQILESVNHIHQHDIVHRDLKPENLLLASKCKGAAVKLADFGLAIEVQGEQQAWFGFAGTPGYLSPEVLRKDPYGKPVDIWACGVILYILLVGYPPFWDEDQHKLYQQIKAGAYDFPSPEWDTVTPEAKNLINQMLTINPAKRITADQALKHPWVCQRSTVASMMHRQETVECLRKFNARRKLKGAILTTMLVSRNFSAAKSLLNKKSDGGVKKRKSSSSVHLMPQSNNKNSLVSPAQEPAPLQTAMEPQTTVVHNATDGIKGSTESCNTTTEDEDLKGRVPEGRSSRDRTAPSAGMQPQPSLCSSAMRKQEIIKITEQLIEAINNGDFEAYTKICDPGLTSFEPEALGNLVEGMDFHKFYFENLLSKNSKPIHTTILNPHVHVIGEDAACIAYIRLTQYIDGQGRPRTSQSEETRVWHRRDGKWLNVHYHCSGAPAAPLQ

[3] = molecular target: Serine/threonine-protein kinase MRCK alpha (Homo sapiens, UniProt Q5VT25)
Chain of Serine/threonine-protein kinase MRCK alpha (Q5VT25 whole entry): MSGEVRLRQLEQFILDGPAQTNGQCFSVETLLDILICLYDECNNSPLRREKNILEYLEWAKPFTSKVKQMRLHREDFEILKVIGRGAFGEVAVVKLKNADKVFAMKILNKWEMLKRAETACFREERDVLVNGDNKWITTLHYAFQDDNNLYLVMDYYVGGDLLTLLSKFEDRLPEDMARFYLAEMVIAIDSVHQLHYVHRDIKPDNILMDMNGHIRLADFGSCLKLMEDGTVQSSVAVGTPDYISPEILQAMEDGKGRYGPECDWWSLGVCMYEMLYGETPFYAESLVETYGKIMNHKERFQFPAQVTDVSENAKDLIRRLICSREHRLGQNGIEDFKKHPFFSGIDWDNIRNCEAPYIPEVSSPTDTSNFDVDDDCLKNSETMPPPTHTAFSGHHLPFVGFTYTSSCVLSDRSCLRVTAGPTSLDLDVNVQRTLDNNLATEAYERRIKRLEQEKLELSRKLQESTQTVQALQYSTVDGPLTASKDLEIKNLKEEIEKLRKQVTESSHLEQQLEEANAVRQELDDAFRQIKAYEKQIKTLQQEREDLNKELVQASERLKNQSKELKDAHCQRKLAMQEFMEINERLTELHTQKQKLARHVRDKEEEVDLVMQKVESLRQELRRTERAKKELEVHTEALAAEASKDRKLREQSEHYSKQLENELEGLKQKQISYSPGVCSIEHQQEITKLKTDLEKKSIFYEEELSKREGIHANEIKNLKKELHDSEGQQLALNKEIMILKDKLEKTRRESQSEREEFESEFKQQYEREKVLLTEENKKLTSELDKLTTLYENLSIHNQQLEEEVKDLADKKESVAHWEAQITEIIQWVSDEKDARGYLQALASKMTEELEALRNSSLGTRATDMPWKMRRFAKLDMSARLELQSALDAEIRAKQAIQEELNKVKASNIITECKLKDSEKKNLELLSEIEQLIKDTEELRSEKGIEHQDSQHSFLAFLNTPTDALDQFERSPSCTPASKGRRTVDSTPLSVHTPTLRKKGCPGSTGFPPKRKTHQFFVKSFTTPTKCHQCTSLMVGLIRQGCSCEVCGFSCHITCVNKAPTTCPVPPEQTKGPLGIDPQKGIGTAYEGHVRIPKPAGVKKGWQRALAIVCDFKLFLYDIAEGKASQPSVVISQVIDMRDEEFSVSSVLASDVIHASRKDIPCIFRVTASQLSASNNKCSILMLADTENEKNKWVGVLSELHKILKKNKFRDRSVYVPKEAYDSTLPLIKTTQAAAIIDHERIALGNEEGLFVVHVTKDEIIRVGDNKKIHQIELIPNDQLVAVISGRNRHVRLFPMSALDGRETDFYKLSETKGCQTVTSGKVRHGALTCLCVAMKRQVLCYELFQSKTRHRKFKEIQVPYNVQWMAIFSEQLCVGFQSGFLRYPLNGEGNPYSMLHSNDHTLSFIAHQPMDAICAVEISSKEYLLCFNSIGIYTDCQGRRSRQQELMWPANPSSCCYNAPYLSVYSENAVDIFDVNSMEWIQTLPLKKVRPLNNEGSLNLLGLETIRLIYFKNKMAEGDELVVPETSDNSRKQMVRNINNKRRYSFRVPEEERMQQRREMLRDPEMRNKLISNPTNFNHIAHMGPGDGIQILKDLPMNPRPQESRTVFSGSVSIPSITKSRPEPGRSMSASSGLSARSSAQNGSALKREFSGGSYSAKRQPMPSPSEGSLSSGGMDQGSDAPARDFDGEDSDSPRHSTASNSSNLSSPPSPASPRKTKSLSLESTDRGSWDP

[4] = molecular target: Dual specificity protein kinase CLK1 (Homo sapiens, UniProt P49759)
Chain of Dual specificity protein kinase CLK1 (P49759 whole entry): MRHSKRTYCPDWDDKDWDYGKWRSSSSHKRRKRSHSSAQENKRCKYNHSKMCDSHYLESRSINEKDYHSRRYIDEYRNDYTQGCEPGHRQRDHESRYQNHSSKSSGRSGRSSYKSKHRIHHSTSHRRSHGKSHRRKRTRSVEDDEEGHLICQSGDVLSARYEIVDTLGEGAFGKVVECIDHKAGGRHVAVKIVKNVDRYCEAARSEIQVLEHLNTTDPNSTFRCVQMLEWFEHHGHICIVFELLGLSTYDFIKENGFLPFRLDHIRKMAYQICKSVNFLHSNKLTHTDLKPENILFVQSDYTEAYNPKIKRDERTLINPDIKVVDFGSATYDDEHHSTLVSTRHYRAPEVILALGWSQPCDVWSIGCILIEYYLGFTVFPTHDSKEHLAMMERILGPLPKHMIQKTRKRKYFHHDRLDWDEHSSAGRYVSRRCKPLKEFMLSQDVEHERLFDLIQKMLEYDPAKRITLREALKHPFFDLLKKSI

[5] = molecular target: T1, MAP kinase-activated protein kinase 5 (Homo sapiens, UniProt Q8IW41)
T1 sequence (Q8IW41 whole entry): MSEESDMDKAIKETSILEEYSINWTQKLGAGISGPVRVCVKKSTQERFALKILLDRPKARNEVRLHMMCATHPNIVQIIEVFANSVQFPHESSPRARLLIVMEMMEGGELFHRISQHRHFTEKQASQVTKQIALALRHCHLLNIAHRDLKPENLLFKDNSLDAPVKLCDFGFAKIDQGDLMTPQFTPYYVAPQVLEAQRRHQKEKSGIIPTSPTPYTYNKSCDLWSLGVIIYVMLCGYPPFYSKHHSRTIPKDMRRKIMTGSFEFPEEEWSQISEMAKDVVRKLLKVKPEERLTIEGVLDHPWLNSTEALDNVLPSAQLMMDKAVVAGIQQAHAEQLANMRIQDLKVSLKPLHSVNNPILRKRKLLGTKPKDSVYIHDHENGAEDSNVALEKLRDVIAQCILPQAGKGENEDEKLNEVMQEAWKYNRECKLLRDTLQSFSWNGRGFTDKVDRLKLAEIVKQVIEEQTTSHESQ

[6] = molecular target: T2, Phosphatidylinositol 5-phosphate 4-kinase type-2 gamma (Homo sapiens, UniProt Q8TBX8)
T2 sequence (Q8TBX8 whole entry): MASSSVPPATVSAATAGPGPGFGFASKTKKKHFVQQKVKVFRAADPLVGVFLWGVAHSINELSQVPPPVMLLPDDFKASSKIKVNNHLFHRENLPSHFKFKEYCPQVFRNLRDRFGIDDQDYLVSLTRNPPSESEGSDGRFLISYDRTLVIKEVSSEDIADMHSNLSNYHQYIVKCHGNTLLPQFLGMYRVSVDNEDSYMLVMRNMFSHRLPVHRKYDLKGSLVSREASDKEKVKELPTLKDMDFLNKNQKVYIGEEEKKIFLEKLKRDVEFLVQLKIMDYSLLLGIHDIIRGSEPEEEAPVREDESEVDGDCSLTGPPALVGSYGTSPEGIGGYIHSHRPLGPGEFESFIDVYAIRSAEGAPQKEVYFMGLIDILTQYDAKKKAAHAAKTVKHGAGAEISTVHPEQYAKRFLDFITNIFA

[7] = molecular target: Serine/threonine-protein kinase SIK3 (Homo sapiens, UniProt Q9Y2K2)
Chain of Serine/threonine-protein kinase SIK3 (Q9Y2K2 whole entry): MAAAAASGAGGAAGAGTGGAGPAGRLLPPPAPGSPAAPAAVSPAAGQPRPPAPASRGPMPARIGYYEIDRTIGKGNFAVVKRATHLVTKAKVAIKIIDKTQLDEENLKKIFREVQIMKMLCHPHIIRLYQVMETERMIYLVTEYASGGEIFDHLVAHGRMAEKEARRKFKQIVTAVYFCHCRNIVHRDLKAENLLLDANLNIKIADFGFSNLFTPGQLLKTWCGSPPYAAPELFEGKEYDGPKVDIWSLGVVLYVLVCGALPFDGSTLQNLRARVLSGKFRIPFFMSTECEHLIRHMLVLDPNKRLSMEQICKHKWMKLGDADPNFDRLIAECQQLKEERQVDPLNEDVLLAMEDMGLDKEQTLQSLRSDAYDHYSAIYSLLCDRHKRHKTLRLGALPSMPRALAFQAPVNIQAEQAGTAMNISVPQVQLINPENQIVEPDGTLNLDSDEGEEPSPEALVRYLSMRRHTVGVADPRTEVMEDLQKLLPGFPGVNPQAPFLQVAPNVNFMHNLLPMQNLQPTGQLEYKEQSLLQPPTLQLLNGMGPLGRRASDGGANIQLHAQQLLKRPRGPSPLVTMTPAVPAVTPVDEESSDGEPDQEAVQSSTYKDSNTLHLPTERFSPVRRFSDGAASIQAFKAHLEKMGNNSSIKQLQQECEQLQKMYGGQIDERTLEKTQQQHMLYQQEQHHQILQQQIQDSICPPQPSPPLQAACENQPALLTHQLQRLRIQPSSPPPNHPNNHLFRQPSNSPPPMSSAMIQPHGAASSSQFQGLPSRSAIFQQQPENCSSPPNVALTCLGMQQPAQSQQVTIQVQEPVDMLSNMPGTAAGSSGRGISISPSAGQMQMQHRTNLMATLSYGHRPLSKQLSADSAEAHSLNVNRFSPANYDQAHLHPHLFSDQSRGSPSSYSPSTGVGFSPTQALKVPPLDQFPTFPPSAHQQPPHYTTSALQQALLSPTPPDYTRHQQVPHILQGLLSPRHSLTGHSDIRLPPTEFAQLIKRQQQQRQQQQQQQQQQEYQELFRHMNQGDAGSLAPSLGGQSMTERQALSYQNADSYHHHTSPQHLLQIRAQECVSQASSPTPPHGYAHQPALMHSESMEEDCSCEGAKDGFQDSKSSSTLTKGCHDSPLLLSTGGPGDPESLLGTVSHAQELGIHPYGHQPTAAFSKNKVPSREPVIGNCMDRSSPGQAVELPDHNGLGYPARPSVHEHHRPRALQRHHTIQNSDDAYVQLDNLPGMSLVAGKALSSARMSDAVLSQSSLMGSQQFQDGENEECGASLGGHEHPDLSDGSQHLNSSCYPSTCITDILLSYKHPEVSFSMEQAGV

[8] = molecular target: T3, Serine/threonine-protein kinase 4 (Homo sapiens, UniProt Q13043)
T3 sequence (Q13043 whole entry): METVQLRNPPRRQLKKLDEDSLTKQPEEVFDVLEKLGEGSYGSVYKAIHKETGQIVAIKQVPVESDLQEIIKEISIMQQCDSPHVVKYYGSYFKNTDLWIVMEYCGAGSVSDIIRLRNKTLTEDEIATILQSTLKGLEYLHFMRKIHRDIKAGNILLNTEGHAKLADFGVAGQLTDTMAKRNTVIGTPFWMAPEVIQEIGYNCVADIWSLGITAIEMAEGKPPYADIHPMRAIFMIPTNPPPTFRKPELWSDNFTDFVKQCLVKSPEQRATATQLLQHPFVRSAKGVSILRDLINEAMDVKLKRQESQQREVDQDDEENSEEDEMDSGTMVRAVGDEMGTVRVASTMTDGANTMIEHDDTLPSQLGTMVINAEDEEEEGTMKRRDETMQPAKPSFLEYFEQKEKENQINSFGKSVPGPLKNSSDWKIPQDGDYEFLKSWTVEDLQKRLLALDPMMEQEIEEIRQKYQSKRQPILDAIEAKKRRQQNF

[9] = molecular target: T4, Non-receptor tyrosine-protein kinase TNK1 (Homo sapiens, UniProt Q13470)
T4 sequence (Q13470 whole entry): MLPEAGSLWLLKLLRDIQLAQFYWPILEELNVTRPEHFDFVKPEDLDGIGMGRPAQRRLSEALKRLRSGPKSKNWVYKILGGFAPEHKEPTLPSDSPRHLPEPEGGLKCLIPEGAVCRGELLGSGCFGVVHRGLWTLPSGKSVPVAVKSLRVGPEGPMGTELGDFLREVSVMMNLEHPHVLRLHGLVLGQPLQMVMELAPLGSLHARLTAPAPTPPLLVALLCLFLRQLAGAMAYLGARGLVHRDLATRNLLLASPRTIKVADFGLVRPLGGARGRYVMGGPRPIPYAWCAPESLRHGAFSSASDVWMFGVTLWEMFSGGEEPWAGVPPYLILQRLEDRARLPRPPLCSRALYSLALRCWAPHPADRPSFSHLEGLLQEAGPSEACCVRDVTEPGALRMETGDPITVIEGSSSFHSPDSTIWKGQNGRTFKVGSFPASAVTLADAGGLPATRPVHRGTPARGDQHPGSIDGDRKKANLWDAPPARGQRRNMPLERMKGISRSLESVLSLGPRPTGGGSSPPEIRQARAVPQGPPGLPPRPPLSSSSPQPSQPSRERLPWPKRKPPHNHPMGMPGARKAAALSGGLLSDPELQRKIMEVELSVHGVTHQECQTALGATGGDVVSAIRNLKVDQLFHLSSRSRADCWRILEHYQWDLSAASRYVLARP

[10] = molecular target: Cyclin-dependent kinase 5 (Homo sapiens, UniProt Q00535)
LIM domain kinase 1 = LIM domain kinase 1 (Homo sapiens, UniProt P53667)
Chain of LIM domain kinase 1 (P53667 whole entry, the tested form may be a part): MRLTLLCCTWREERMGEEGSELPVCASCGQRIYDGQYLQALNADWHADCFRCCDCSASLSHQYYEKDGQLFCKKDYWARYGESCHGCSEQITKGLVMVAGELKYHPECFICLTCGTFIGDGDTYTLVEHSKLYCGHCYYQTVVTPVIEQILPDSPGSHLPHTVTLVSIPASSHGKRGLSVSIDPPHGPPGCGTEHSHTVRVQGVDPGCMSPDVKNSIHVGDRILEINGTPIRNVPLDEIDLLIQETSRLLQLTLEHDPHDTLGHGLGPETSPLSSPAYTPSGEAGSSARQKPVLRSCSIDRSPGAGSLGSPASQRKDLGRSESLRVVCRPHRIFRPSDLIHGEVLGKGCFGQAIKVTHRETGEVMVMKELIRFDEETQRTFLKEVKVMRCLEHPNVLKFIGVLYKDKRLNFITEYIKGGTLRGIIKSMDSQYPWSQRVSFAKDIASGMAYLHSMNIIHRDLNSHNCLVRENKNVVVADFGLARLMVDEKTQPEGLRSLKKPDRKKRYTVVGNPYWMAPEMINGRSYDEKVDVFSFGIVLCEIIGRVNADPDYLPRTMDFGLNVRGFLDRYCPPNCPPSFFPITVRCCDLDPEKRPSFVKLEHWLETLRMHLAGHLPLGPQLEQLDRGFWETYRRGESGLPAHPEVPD

Activated CDC42 kinase 1 = Activated CDC42 kinase 1 (Homo sapiens, UniProt Q07912)
[11] = molecular target: Cyclin-dependent kinase 6 (Homo sapiens, UniProt Q00534)
Chain of Cyclin-dependent kinase 6 (Q00534 whole entry): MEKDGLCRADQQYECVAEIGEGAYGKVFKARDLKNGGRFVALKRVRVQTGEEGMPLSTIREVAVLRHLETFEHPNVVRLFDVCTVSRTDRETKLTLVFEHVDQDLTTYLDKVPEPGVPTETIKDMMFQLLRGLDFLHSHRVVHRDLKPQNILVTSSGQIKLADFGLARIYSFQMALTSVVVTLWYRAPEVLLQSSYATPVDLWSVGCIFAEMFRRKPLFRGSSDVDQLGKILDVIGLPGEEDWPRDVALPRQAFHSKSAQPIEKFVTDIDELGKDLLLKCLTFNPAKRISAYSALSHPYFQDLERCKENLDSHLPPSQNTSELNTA
Note: in the data inactive means no Kd found up to 30 µM.

| Structure (SMILES) | Kd [1] | Kd [2] | Kd [3] | Kd [4] | Kd [5] | Kd [6] | Kd [7] | Kd [8] | Kd [9] | Kd [10] | Kd (LIM domain kinase 1) | Kd (Activated CDC42 kinase 1) | Kd [11] |
| --- | --- | --- | --- | --- | --- | --- | --- | --- | --- | --- | --- | --- | --- |
| OCCn1cc(-c2cnc3nnn(Cc4ccc5ncccc5c4)c3n2)cn1 [PF-04217903] | > 30 µM (inactive) | > 30 µM (inactive) | > 30 µM (inactive) | > 30 µM (inactive) | > 30 µM (inactive) | > 30 µM (inactive) | > 30 µM (inactive) | > 30 µM (inactive) | > 30 µM (inactive) |  |  |  | > 30 µM (inactive) |
| CN1CCN(c2ccc3nc(-c4c(N)c5c(F)cccc5[nH]c4=O)[nH]c3c2)CC1 [DOVITINIB] |  |  |  |  |  |  |  |  |  |  |  |  | 2.83 µM (active) |
| Cc1cc(Nc2cc(N3CCN(C)CC3)nc(/C=C/c3ccccc3)n2)n[nH]1 [ENMD-2076] | 1.49 µM (active) |  |  |  |  | > 30 µM (inactive) | > 30 µM (inactive) |  |  |  |  |  | > 30 µM (inactive) |
| O=C(Nc1cccc(Cl)c1)Nc1ncc(CCNc2ncnc3ccsc23)s1 [SNS-314] | > 30 µM (inactive) |  |  | > 30 µM (inactive) |  |  | > 30 µM (inactive) | > 30 µM (inactive) | > 30 µM (inactive) |  |  |  | > 30 µM (inactive) |
| Cc1cn(-c2cc(NC(=O)c3ccc(C)c(Nc4nccc(-c5cccnc5)n4)c3)cc(C(F)(F)F)c2)cn1 [NILOTINIB] |  |  |  |  |  |  |  |  |  |  |  |  | > 30 µM (inactive) |
| Nc1nc(N)c2nc(-c3cccc(O)c3)c(-c3cccc(O)c3)nc2n1 [TG100-115] |  |  |  |  |  |  |  |  |  |  |  |  | > 30 µM (inactive) |
| COC(=O)[C@@]1(O)C[C@H]2O[C@]1(C)n1c3ccccc3c3c4c(c5c6ccccc6n2c5c31)C(=O)NC4 [K-252A] | 0.09 µM (active) | 0.173 µM (active) | > 30 µM (inactive) | 0.01 µM (active) | > 30 µM (inactive) | > 30 µM (inactive) | 4.03 µM (active) | 0.029 µM (active) | 0.287 µM (active) | 0.911 µM (active) | > 30 µM (inactive) |  | 0.399 µM (active) |
| Cc1nc(N)sc1-c1ccnc(Nc2ccc(N3CCOCC3)cc2)n1 [CYC-116] | 0.007 µM (active) |  |  | 0.586 µM (active) |  | 0.067 µM (active) |  |  | > 30 µM (inactive) |  | 0.984 µM (active) |  | 1.72 µM (active) |

Second part, the compound after the results:

| Kd [1] | Kd [2] | Kd [3] | Kd [4] | Kd [5] | Kd [6] | Kd [7] | Kd [8] | Kd [9] | Kd [10] | Kd (LIM domain kinase 1) | Kd (Activated CDC42 kinase 1) | Kd [11] | Structure (SMILES) |
| --- | --- | --- | --- | --- | --- | --- | --- | --- | --- | --- | --- | --- | --- |
| > 30 µM (inactive) | > 30 µM (inactive) | > 30 µM (inactive) | 0.714 µM (active) | > 30 µM (inactive) | > 30 µM (inactive) | > 30 µM (inactive) | > 30 µM (inactive) | > 30 µM (inactive) |  |  |  |  | CCc1cnn2c(NCc3ccc[n+]([O-])c3)cc(N3CCCC[C@H]3CCO)nc12 [DINACICLIB] |
| > 30 µM (inactive) | 0.247 µM (active) | > 30 µM (inactive) | > 30 µM (inactive) |  | > 30 µM (inactive) | > 30 µM (inactive) | > 30 µM (inactive) | > 30 µM (inactive) | > 30 µM (inactive) | > 30 µM (inactive) | > 30 µM (inactive) |  | CN(C)C(=O)c1cc2cnc(Nc3ccc(N4CCNCC4)cn3)nc2n1C1CCCC1 [RIBOCICLIB] |
| > 30 µM (inactive) | > 30 µM (inactive) | > 30 µM (inactive) | > 30 µM (inactive) |  | > 30 µM (inactive) | > 30 µM (inactive) | > 30 µM (inactive) | > 30 µM (inactive) | > 30 µM (inactive) | > 30 µM (inactive) | > 30 µM (inactive) | > 30 µM (inactive) | CO[C@H]1C[C@@H]2CC[C@@H](C)[C@@](O)(O2)C(=O)C(=O)N2CCCC[C@H]2C(=O)O[C@H]([C@H](C)C[C@@H]2CC[C@@H](OCCO)[C@H](OC)C2)CC(=O)[C@H](C)/C=C(\C)[C@@H](O)[C@@H](OC)C(=O)[C@H](C)C[C@H](C)/C=C/C=C/C=C/1C [EVEROLIMUS] |
| 0.02 µM (active) | > 30 µM (inactive) | > 30 µM (inactive) | > 30 µM (inactive) | > 30 µM (inactive) | 1.59 µM (active) | 0.206 µM (active) | > 30 µM (inactive) | > 30 µM (inactive) | > 30 µM (inactive) |  | > 30 µM (inactive) | > 30 µM (inactive) | O=C(Nc1ccc(-c2ccnc(Nc3ccc(N4CCOCC4)cc3)n2)cc1)C1CCCN1 (stereo not drawn) [XL-019] |
| > 30 µM (inactive) | > 30 µM (inactive) | > 30 µM (inactive) | > 30 µM (inactive) |  | > 30 µM (inactive) | > 30 µM (inactive) | > 30 µM (inactive) | 1.49 µM (active) | > 30 µM (inactive) | > 30 µM (inactive) | > 30 µM (inactive) | > 30 µM (inactive) | COCCNCc1ccc(-c2cc3nccc(Oc4ccc(NC(=S)NC(=O)Cc5ccc(F)cc5)cc4F)c3s2)nc1 [GLESATINIB] |
|  |  |  |  |  |  |  |  |  |  |  |  | > 30 µM (inactive) | CCn1c(-c2nonc2N)nc2c(C#CC(C)(C)O)ncc(OC[C@H]3CCCNC3)c21 [GSK-690693] |
| > 30 µM (inactive) | > 30 µM (inactive) | > 30 µM (inactive) | > 30 µM (inactive) |  | > 30 µM (inactive) | > 30 µM (inactive) | > 30 µM (inactive) | > 30 µM (inactive) | > 30 µM (inactive) | > 30 µM (inactive) | > 30 µM (inactive) | > 30 µM (inactive) | COc1cc2nccc(Oc3ccc(NC(=O)Nc4cc(C)on4)c(Cl)c3)c2cc1OC [TIVOZANIB] |
| > 30 µM (inactive) | > 30 µM (inactive) | > 30 µM (inactive) | > 30 µM (inactive) |  | > 30 µM (inactive) | > 30 µM (inactive) | > 30 µM (inactive) | > 30 µM (inactive) | > 30 µM (inactive) | > 30 µM (inactive) | > 30 µM (inactive) | > 30 µM (inactive) | Cc1cc2c(F)c(Oc3ncnn4cc(OC[C@@H](C)OC(=O)[C@H](C)N)c(C)c34)ccc2[nH]1 [BRIVANIB ALANINATE] |
| > 30 µM (inactive) | > 30 µM (inactive) |  |  | > 30 µM (inactive) | > 30 µM (inactive) | > 30 µM (inactive) | > 30 µM (inactive) | > 30 µM (inactive) | > 30 µM (inactive) | > 30 µM (inactive) | > 30 µM (inactive) | > 30 µM (inactive) | CN1N=C(N)c2cn([C@@H]3O[C@H](COP(=O)(O)O)[C@@H](O)[C@H]3O)c3ncnc1c23 [TRICIRIBINE PHOSPHATE] |
